Measurements from US20160009693A1, “HERBICIDAL COMPOUNDS” (SYNGENTA LIMITED, priority 2013, published 2016).

What was measured:
Assay type in all cases: in vivo
Details in all cases: applied at 1000 g/h, evaluated after 13 days
[1] = tested on: Alopecurus myosuroides (ALOMY); assay: Herbicidal glasshouse test, pre-emergence, ALOMY
Setaria faberi (SETFA) [2] = assay: Herbicidal glasshouse test, pre-emergence, SETFA
[3] = tested on: Echinochloa crus-galli (ECHCG); assay: Herbicidal glasshouse test, pre-emergence, ECHCG
How it was run: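 In this pre-emergence glasshouse test, ECHCG seeds sown in pots of standard soil were sprayed one day after sowing with the test material in acetone/water (50:50) containing 0.5% Tween 20. Plants were kept at 24/16° C., 14 hours light, 65% humidity, and watered twice daily. Percentage damage was rated after 13 days on a 1–5 scale.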

Solanum nigrum (SOLNI) [4] = assay: Herbicidal glasshouse test, pre-emergence, SOLNI
How it was run: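 This pre-emergence glasshouse herbicide test used Solanum nigrum sown in standard soil. One day after sowing, pots were sprayed with the compound in acetone/water (50:50) with 0.5% Tween 20. They were then grown at 24/16° C., with 14 hours light and 65% humidity, and watered twice daily. Percentage damage was scored after 13 days on a five point scale, where 5=80-100% and 1=0-19%.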

[5] = tested on: Amaranthus retoflexus (AMARE); assay: Herbicidal glasshouse test, pre-emergence, AMARE
How it was run: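 This pre-emergence glasshouse herbicide test used Amaranthus retoflexus sown in standard soil. After one day of cultivation, an aqueous spray made from the technical ingredient in 50:50 acetone/water with 0.5% Tween 20 was applied. Pots stayed at 24/16° C., 14 hours light, 65% humidity, with twice-daily watering. Damage was rated on a five point scale (1=0-19% up to 5=80-100%).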

[6] = tested on: Ipomoea hederacea (IPOHE); assay: Herbicidal glasshouse test, pre-emergence, IPOHE
[7] = tested on: Alopecurus myosuroides (ALOMY); assay: Herbicidal glasshouse test, post-emergence, ALOMY
Setaria faberi (SETFA) [8] = assay: Herbicidal glasshouse test, post-emergence, SETFA
How it was run: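 This post-emergence glasshouse herbicide test used potted Setaria faberi. Plants were cultivated for 8 days under controlled conditions (24/16° C. day/night, 14 hours light, 65% humidity) and then treated with an aqueous spray made from an acetone/water (50:50) solution containing 0.5% Tween 20. After 13 days of further growth with twice-daily watering, damage was rated on a five point scale (5=80-100%; 1=0-19%).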

[9] = tested on: Echinochloa crus-galli (ECHCG); assay: Herbicidal glasshouse test, post-emergence, ECHCG
How it was run: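 In this post-emergence glasshouse test, barnyard grass (ECHCG) was cultivated for 8 days under controlled conditions (24/16° C. day/night, 14 hours light, 65% humidity). It was then sprayed with an aqueous solution of the technical compound in acetone / water (50:50) with 0.5% Tween 20. Plants were kept under the same conditions and watered twice daily. After 13 days, percentage damage was rated on a five point scale (5=80-100%; 1=0-19%).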

Solanum nigrum (SOLNI) [10] = assay: Herbicidal glasshouse test, post-emergence, SOLNI
[11] = tested on: Amaranthus retoflexus (AMARE); assay: Herbicidal glasshouse test, post-emergence, AMARE
How it was run: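 This post-emergence glasshouse test used AMARE plants raised in standard soil for 8 days under controlled conditions (24/16° C. day/night, 14 hours light, 65% humidity). Foliage was sprayed with formulated compound in acetone/water (50:50) containing 0.5% Tween 20. Plants were then watered twice daily, and after 13 days percentage damage was rated on a five point scale.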

[12] = tested on: Ipomoea hederacea (IPOHE); assay: Herbicidal glasshouse test, post-emergence, IPOHE

Row | SMILES | PRE Application ALOMY, percentage damage (five point scale) [1] | PRE Application SETFA, percentage damage (five point scale) (Setaria faberi (SETFA) [2]) | PRE Application ECHCG, percentage damage (five point scale) [3] | PRE Application SOLNI, percentage damage (five point scale) (Solanum nigrum (SOLNI) [4]) | PRE Application AMARE, percentage damage (five point scale) [5] | PRE Application IPOHE, percentage damage (five point scale) [6] | POST Application ALOMY, percentage damage (five point scale) [7] | POST Application SETFA, percentage damage (five point scale) (Setaria faberi (SETFA) [8]) | POST Application ECHCG, percentage damage (five point scale) [9] | POST Application SOLNI, percentage damage (five point scale) (Solanum nigrum (SOLNI) [10]) | POST Application AMARE, percentage damage (five point scale) [11] | POST Application IPOHE, percentage damage (five point scale) [12]
1 | Cc1ccc(Cl)cc1-n1c(=O)c(C(=O)Nc2nnnn2C)nn(C)c1=O [Compound 1.016] | 5 (5=80-100%) | 5 (5=80-100%) | 5 (5=80-100%) | 5 (5=80-100%) | 5 (5=80-100%) | 5 (5=80-100%) | 5 (5=80-100%) | 5 (5=80-100%) | 5 (5=80-100%) | 5 (5=80-100%) | 5 (5=80-100%) | 5 (5=80-100%)
2 | CCOc1cccc(-n2c(=O)c(C(=O)Nc3nnnn3C)nn(C)c2=O)c1 [Compound 1.034] | 5 (5=80-100%) | 5 (5=80-100%) | 5 (5=80-100%) | 5 (5=80-100%) | 5 (5=80-100%) | 5 (5=80-100%) | 5 (5=80-100%) | 5 (5=80-100%) | 5 (5=80-100%) | 5 (5=80-100%) | 5 (5=80-100%) | 5 (5=80-100%)
3 | Cn1nnnc1NC(=O)c1nn(C)c(=O)n(-c2ccccc2F)c1=O [Compound 1.020] | 5 (5=80-100%) | 5 (5=80-100%) | 5 (5=80-100%) | 5 (5=80-100%) | 5 (5=80-100%) | 5 (5=80-100%) | 5 (5=80-100%) | 5 (5=80-100%) | 5 (5=80-100%) | 5 (5=80-100%) | 5 (5=80-100%) | 5 (5=80-100%)
4 | Cn1nnnc1NC(=O)c1nn(C)c(=O)n(Cc2ccccc2C#N)c1=O [Compound 1.083] | 5 (5=80-100%) | 5 (5=80-100%) | 5 (5=80-100%) | 5 (5=80-100%) | 5 (5=80-100%) | 5 (5=80-100%) | 5 (5=80-100%) | 5 (5=80-100%) | 5 (5=80-100%) | 5 (5=80-100%) | 5 (5=80-100%) | 5 (5=80-100%)
5 | COc1ccc(-n2c(=O)c(C(=O)Nc3nnnn3C)nn(C)c2=O)cc1Cl [Compound 1.045] | 5 (5=80-100%) | 5 (5=80-100%) | 5 (5=80-100%) | 5 (5=80-100%) | 5 (5=80-100%) | 5 (5=80-100%) | 5 (5=80-100%) | 5 (5=80-100%) | 5 (5=80-100%) | 5 (5=80-100%) | 5 (5=80-100%) | 5 (5=80-100%)
6 | CC(C)CCn1nc(C(=O)Nc2nnnn2C)c(=O)n(-c2cccc(F)c2)c1=O [Compound 1.013] | 1 (1=0-19%) | 1 (1=0-19%) | 1 (1=0-19%) | 3 (3=40-59%) | 2 (2=20-39%) | 2 (2=20-39%) | 5 (5=80-100%) | 3 (3=40-59%) | 1 (1=0-19%) | 5 (5=80-100%) | 2 (2=20-39%) | 4 (4=60-79%)
7 | Cc1cccc(Cn2c(=O)c(C(=O)Nc3nnnn3C)nn(C)c2=O)c1 [Compound 1.052] | 5 (5=80-100%) | 1 (1=0-19%) | 5 (5=80-100%) | 5 (5=80-100%) | 5 (5=80-100%) | 2 (2=20-39%) | 5 (5=80-100%) | 1 (1=0-19%) | 5 (5=80-100%) | 5 (5=80-100%) | 5 (5=80-100%) | 5 (5=80-100%)
8 | Cn1nnnc1NC(=O)c1nn(C)c(=O)n(Cc2ccc(F)c(F)c2)c1=O [Compound 1.064] | 5 (5=80-100%) | 1 (1=0-19%) | 5 (5=80-100%) | 5 (5=80-100%) | 5 (5=80-100%) | 5 (5=80-100%) | 2 (2=20-39%) | 2 (2=20-39%) | 5 (5=80-100%) | 5 (5=80-100%) | 5 (5=80-100%) | 5 (5=80-100%)
9 | Cn1nnnc1NC(=O)c1nn(C)c(=O)n(CC2CCCCC2)c1=O [Compound 1.096] | 5 (5=80-100%) | 4 (4=60-79%) | 5 (5=80-100%) | 5 (5=80-100%) | 5 (5=80-100%) | 5 (5=80-100%) | 4 (4=60-79%) | 5 (5=80-100%) | 5 (5=80-100%) | 5 (5=80-100%) | 5 (5=80-100%) | 5 (5=80-100%)
10 | COCCOc1ccc(-n2c(=O)c(C(=O)Nc3nnnn3C)nn(C)c2=O)cc1 [Compound 1.023] | 5 (5=80-100%) | 5 (5=80-100%) | 5 (5=80-100%) | 5 (5=80-100%) | 5 (5=80-100%) | 5 (5=80-100%) | 5 (5=80-100%) | 5 (5=80-100%) | 5 (5=80-100%) | 5 (5=80-100%) | 5 (5=80-100%) | 5 (5=80-100%)
